Results on six compounds are retold here after ChEMBL document CHEMBL5126638, “Resin Glycosides from Operculina hamiltonii and Their Synergism with Vinblastine in Cancer Cells” (J Nat Prod, 2022).

Common to all, as to assay type: functional, cell-based
The subject of assay [1] is MCF7. Nature of the assay: Enhancement of 0.4 uM vinblastine-induced cytotoxicity in human MCF7 cells assessed as growth inhibition level at 25 uM after 48 hrs by Microscopic visualization based assay.
In assay [2] the test system is HeLa. In words: Enhancement of 0.003 uM vinblastine-induced cytotoxicity in human HeLa cells assessed as growth inhibition level after 48 hrs by SRB assay. (In general: The SRB assay estimates cell density from bound dye.)
Assay [3] has as its system HeLa. In words: Cytotoxicity in human HeLa cells assessed as growth inhibition level after 48 hrs by SRB assay.
Assay [4] concerns MCF7-VP. In words: Enhancement of 0.003 uM vinblastine-induced cytotoxicity in human MCF7/Vin cells assessed as growth inhibition level after 48 hrs by SRB assay.
For assay [5], the system named is HCT-116. In words: Cytotoxicity in human HCT-116 cells assessed as growth inhibition level after 48 hrs by SRB assay. The note with it: HCT-116, 48 h.
In assay [6] the test system is MCF7-VP. Nature of the assay: Cytotoxicity in human MCF7/Vin cells assessed as growth inhibition level after 48 hrs by SRB assay.
In assay [7] the test system is HCT-116. In words: Enhancement of 0.003 uM vinblastine-induced cytotoxicity in human HCT-116 cells assessed as growth inhibition level after 48 hrs by SRB assay. The note with it: HCT-116, 48 h.
Assay [8] deals with MCF7. Nature of the assay: Enhancement of 0.003 uM vinblastine-induced cytotoxicity in human MCF7 cells assessed as growth inhibition level after 48 hrs by SRB assay. The note with it: MCF7, 48 h.
Assay [9] has as its system MCF7. Nature of the assay: Cytotoxicity in human MCF7 cells assessed as growth inhibition level after 48 hrs by SRB assay. The following applies: MCF7, 48 h.

Activity calls are given as the source filed them. The rule behind the calls is not given here.

Usually IC50 stands for the point on the concentration scale where inhibition reaches its midpoint.

As to `CCCCCCCCCC(=O)O[C@H]1[C@H](O[C@@H]2[C@@H](O)[C@@H](O)[C@H](O[C@H]3[C@H](O[C@@H](CCCCC)CCCCCCCCCC(=O)OC)O[C@H](C)[C@H](O)[C@@H]3O)O[C@H]2C)O[C@@H](C)[C@H](O[C@@H]2O[C@@H](C)[C@H](O)[C@@H](O)[C@H]2O)[C@H]1O[C@@H]1O[C@H](CO)[C@@H](O)[C@H](O)[C@H]1O`, the result in assay [1] was Active. Also, the 50% inhibitory concentration (IC50) in assay [2] is 26.1 µM; in [3], above 25 µM; in assay [4], 10 µM; in assay [5], above 25 µM; in assay [6], above 25 µM; in assay [7] it was 8.6 µM. The IC50 was 4.7 µM in assay [8] and above 25 µM in assay [9].
Regarding `CCCCCCCCCC(=O)O[C@H]1[C@H](O[C@@H]2[C@H]3OC(=O)CCCCCCCCC[C@H](CCCCC)O[C@@H]4O[C@H](C)[C@H](O)[C@H](O)[C@H]4O[C@H](O[C@H]2C)[C@@H]3O)O[C@@H](C)[C@H](O[C@@H]2O[C@@H](C)[C@H](O)[C@@H](O)[C@H]2O)[C@H]1O[C@@H]1O[C@H](CO)[C@@H](O)[C@H](O)[C@H]1O`, the result in [1] was Active. Besides, the concentration for half-maximal inhibition (IC50) is 23.8 µM in [2]; above 25 µM in assay [3]; 19.4 µM in [4]; above 25 µM in assay [5]; above 25 µM in [6]; 12.8 µM in assay [7]. Also, the IC50 in assay [8] was 12.3 µM; in assay [9], above 25 µM.
Turning to `CC[C@]1(O)C[C@@H]2CN(CCc3c([nH]c4ccccc34)[C@@](C(=O)OC)(c3cc4c(cc3OC)N(C)[C@H]3[C@@](O)(C(=O)OC)[C@H](OC(C)=O)[C@]5(CC)C=CCN6CC[C@]43[C@@H]65)C2)C1` [VINBLASTINE], the IC50 in assay [3] amounted to 0.004 µM; in [5] it was 0.3 µM; in assay [6], 1.63 µM; in assay [9], 0.035 µM.
For the compound `COc1cc2c(c(OC)c1OC)-c1ccc(OC)c(=O)cc1[C@@H](NC(C)=O)CC2` [COLCHICINE], the results for the concentration for half-maximal inhibition (IC50) in assay [3], in [5] and in assay [6] were 0.006 µM, 0.08 µM and 1.57 µM, respectively.
Regarding `CCCCCCCCCCCC(=O)O[C@H]1[C@H](O[C@@H]2[C@@H](O)[C@@H](O)[C@H](O[C@H]3[C@H](O[C@@H](CCCCC)CCCCCCCCCC(=O)OC)O[C@H](C)[C@H](O)[C@@H]3O)O[C@H]2C)O[C@@H](C)[C@H](O[C@@H]2O[C@@H](C)[C@H](O)[C@@H](O)[C@H]2O)[C@H]1O[C@@H]1O[C@H](CO)[C@@H](O)[C@H](O)[C@H]1O`, the result in assay [1] was Active. The half-maximal inhibitory concentration (IC50) in [2] is 14.6 µM; in assay [3], above 25 µM; in assay [4], 3.1 µM; in assay [5], above 25 µM; in assay [6], above 25 µM; in assay [7] it was 6.8 µM. Moreover, the 50% inhibitory concentration (IC50) in assay [8] is 4.4 µM; in [9], above 25 µM.
As to `CCCCCCCCCCCC(=O)O[C@H]1[C@H](O[C@@H]2[C@H]3OC(=O)CCCCCCCCC[C@H](CCCCC)O[C@@H]4O[C@H](C)[C@H](O)[C@H](O)[C@H]4O[C@H](O[C@H]2C)[C@@H]3O)O[C@@H](C)[C@H](O[C@@H]2O[C@@H](C)[C@H](O)[C@@H](O)[C@H]2O)[C@H]1O[C@@H]1O[C@H](CO)[C@@H](O)[C@H](O)[C@H]1O`, in assay [1], the result was Active. The concentration for half-maximal inhibition (IC50) was 26.6 µM in [2]; above 25 µM in [3]; 18.4 µM in [4]; above 25 µM in assay [5]; above 25 µM in assay [6]; 17.7 µM in assay [7]. Also, the half-maximal inhibitory concentration (IC50) in [8] is 15.2 µM; in [9] it was above 25 µM.
